According to ChEMBL document CHEMBL4507264, “Data for DCP probe BAY-7598” (2021):

Legend:
[1] = biological target: Tyrosine-protein kinase ZAP-70 (Homo sapiens) (UniProt P43403); settings: Compound concentration 1000.0 nM
[2] = biological target: Serine/threonine-protein kinase NLK (Homo sapiens) (UniProt Q9UBE8); settings: Compound concentration 1000.0 nM
[3] = biological target: Tyrosine-protein kinase receptor TYRO3 (Homo sapiens) (UniProt Q06418); settings: Compound concentration 1000.0 nM
[4] = test system: Epidermal growth factor receptor (Homo sapiens), P00533 [G719C]; settings: Compound concentration 1000.0 nM
[5] = biological target: Serine/threonine-protein kinase WNK2 (Homo sapiens) (UniProt Q9Y3S1); settings: Compound concentration 1000.0 nM
[6] = biological target: Serine/threonine-protein kinase 32B (Homo sapiens) (UniProt Q9NY57); settings: Compound concentration 1000.0 nM
[7] = biological target: TGF-beta receptor type-2 (Homo sapiens) (UniProt P37173); settings: Compound concentration 1000.0 nM
[8] = biological target: Sodium-dependent serotonin transporter (Homo sapiens) (UniProt P31645); settings: Compound concentration 10.0 uM
[9] = test system: Receptor-type tyrosine-protein kinase FLT3 (Homo sapiens), P36888 [D835V]; settings: Compound concentration 1000.0 nM
[10] = test system: Receptor-type tyrosine-protein kinase FLT3 (Homo sapiens), P36888 [D835H]; settings: Compound concentration 1000.0 nM
[11] = biological target: NUAK family SNF1-like kinase 2 (Homo sapiens) (UniProt Q9H093); settings: Compound concentration 1000.0 nM
[12] = biological target: Serine/threonine-protein kinase LATS2 (Homo sapiens) (UniProt Q9NRM7); settings: Compound concentration 1000.0 nM
[13] = biological target: Mitogen-activated protein kinase 4 (Homo sapiens) (UniProt P31152); settings: Compound concentration 1000.0 nM
[14] = biological target: Serine/threonine-protein kinase 25 (Homo sapiens) (UniProt O00506); settings: Compound concentration 1000.0 nM
[15] = biological target: 5'-AMP-activated protein kinase catalytic subunit alpha-1 (Homo sapiens) (UniProt Q13131); settings: Compound concentration 1000.0 nM
[16] = biological target: Macrophage-stimulating protein receptor (Homo sapiens) (UniProt Q04912); settings: Compound concentration 1000.0 nM
[17] = biological target: Vascular endothelial growth factor receptor 2 (Homo sapiens) (UniProt P35968); settings: Compound concentration 1000.0 nM
[18] = biological target: Phosphatidylinositol 5-phosphate 4-kinase type-2 gamma (Homo sapiens) (UniProt Q8TBX8); settings: Compound concentration 1000.0 nM
[19] = biological target: Testis-specific serine/threonine-protein kinase 3 (Homo sapiens) (UniProt Q96PN8); settings: Compound concentration 1000.0 nM
[20] = biological target: SRSF protein kinase 2 (Homo sapiens) (UniProt P78362); settings: Compound concentration 1000.0 nM
[21] = biological target: SRSF protein kinase 3 (Homo sapiens) (UniProt Q9UPE1); settings: Compound concentration 1000.0 nM
[22] = biological target: Serine/threonine-protein kinase PAK 3 (Homo sapiens) (UniProt O75914); settings: Compound concentration 1000.0 nM
[23] = test system: Tyrosine-protein kinase ABL1 (Homo sapiens), P00519 [F317I]; settings: Compound concentration 1000.0 nM
[24] = biological target: Serine/threonine-protein kinase LATS1 (Homo sapiens) (UniProt O95835); settings: Compound concentration 1000.0 nM
[25] = biological target: Ribosomal protein S6 kinase beta-1 (Homo sapiens) (UniProt P23443); settings: Compound concentration 1000.0 nM
[26] = test system: Receptor-type tyrosine-protein kinase FLT3 (Homo sapiens), P36888 [K663Q]; settings: Compound concentration 1000.0 nM
[27] = biological target: Ephrin type-A receptor 5 (Homo sapiens) (UniProt P54756); settings: Compound concentration 1000.0 nM
[28] = biological target: Myosin light chain kinase (Homo sapiens) (UniProt Q32MK0); settings: Compound concentration 1000.0 nM
[29] = biological target: Inhibitor of nuclear factor kappa-B kinase subunit alpha (Homo sapiens) (UniProt O15111); settings: Compound concentration 1000.0 nM
[30] = biological target: Leucine-rich repeat serine/threonine-protein kinase 2 (Homo sapiens) (UniProt Q5S007); settings: Compound concentration 1000.0 nM
[31] = biological target: Serine/threonine-protein kinase Nek3 (Homo sapiens) (UniProt P51956); settings: Compound concentration 1000.0 nM
[32] = biological target: SNF-related serine/threonine-protein kinase (Homo sapiens) (UniProt Q9NRH2); settings: Compound concentration 1000.0 nM
[33] = biological target: Tyrosine-protein kinase JAK3 (Homo sapiens) (UniProt P52333); settings: Compound concentration 1000.0 nM
[34] = biological target: Receptor tyrosine-protein kinase erbB-4 (Homo sapiens) (UniProt Q15303); settings: Compound concentration 1000.0 nM
[35] = biological target: TRAF2 and NCK-interacting protein kinase (Homo sapiens) (UniProt Q9UKE5); settings: Compound concentration 1000.0 nM
[36] = biological target: Myosin light chain kinase 2, skeletal/cardiac muscle (Homo sapiens) (UniProt Q9H1R3); settings: Compound concentration 1000.0 nM
[37] = biological target: Mitogen-activated protein kinase 14 (Homo sapiens) (UniProt Q16539); settings: Compound concentration 1000.0 nM
[38] = biological target: Fibroblast growth factor receptor 3 (Homo sapiens) (UniProt P22607); settings: Compound concentration 1000.0 nM
[39] = biological target: Casein kinase I isoform alpha (Homo sapiens) (UniProt P48729); settings: Compound concentration 1000.0 nM
[40] = biological target: Dual specificity mitogen-activated protein kinase kinase 1 (Homo sapiens) (UniProt Q02750); settings: Compound concentration 1000.0 nM
[41] = test system: Proto-oncogene tyrosine-protein kinase receptor Ret (Homo sapiens), P07949 [V804L]; settings: Compound concentration 1000.0 nM
[42] = biological target: Serine/threonine-protein kinase Nek1 (Homo sapiens) (UniProt Q96PY6); settings: Compound concentration 1000.0 nM
[43] = biological target: Ephrin type-A receptor 7 (Homo sapiens) (UniProt Q15375); settings: Compound concentration 1000.0 nM
[44] = biological target: Serine/threonine-protein kinase PAK 2 (Homo sapiens) (UniProt Q13177); settings: Compound concentration 1000.0 nM
[45] = biological target: Discoidin domain-containing receptor 2 (Homo sapiens) (UniProt Q16832); settings: Compound concentration 1000.0 nM

Tyrosine-protein kinase receptor TYRO3 (Homo sapiens), sequence (Q06418 whole entry): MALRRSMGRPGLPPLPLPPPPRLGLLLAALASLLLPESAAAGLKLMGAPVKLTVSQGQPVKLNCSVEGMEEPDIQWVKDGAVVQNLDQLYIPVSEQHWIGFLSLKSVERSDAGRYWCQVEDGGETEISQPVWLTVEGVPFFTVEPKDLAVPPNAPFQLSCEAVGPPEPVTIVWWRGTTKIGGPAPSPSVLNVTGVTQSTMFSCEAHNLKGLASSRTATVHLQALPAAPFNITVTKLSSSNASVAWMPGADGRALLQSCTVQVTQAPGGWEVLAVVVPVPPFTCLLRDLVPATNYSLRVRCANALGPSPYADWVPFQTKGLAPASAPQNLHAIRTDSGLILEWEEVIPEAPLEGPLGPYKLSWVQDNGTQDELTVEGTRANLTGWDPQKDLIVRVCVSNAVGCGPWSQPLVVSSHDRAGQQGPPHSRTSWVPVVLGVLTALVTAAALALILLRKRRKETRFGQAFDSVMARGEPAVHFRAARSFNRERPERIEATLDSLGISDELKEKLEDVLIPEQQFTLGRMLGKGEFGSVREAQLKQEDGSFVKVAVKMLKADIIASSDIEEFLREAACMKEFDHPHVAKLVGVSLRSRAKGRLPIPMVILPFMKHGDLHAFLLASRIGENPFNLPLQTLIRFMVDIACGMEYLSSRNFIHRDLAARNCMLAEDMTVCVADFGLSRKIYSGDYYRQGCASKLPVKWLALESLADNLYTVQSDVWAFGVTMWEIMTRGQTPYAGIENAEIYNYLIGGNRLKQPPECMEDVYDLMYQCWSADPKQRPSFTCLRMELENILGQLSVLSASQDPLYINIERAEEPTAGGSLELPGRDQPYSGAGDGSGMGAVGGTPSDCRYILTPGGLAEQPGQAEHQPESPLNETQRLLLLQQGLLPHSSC
Serine/threonine-protein kinase Nek3 (Homo sapiens), sequence (P51956 whole entry): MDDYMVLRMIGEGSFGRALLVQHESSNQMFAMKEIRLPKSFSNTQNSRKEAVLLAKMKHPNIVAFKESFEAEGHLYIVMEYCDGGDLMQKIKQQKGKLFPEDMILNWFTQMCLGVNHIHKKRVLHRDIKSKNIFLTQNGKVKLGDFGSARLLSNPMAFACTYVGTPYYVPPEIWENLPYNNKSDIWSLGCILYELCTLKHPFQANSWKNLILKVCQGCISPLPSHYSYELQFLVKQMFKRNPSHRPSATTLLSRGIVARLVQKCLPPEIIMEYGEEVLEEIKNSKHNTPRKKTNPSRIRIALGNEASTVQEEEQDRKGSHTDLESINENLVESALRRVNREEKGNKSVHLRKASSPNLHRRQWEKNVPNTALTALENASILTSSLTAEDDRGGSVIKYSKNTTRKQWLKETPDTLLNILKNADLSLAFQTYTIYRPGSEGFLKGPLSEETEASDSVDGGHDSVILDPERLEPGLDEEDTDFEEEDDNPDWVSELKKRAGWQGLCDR
Mitogen-activated protein kinase 14 (Homo sapiens), sequence (Q16539 whole entry): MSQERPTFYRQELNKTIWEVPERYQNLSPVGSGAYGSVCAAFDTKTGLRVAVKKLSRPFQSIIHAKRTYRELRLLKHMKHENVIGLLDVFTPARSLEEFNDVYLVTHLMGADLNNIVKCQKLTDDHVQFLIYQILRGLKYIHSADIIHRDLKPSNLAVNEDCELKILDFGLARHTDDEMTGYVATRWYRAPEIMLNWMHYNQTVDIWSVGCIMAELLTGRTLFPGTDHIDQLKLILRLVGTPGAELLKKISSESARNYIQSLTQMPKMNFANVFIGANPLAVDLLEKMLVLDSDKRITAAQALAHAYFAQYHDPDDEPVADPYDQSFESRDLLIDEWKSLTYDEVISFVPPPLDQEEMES
SRSF protein kinase 3 (Homo sapiens), sequence (Q9UPE1 whole entry): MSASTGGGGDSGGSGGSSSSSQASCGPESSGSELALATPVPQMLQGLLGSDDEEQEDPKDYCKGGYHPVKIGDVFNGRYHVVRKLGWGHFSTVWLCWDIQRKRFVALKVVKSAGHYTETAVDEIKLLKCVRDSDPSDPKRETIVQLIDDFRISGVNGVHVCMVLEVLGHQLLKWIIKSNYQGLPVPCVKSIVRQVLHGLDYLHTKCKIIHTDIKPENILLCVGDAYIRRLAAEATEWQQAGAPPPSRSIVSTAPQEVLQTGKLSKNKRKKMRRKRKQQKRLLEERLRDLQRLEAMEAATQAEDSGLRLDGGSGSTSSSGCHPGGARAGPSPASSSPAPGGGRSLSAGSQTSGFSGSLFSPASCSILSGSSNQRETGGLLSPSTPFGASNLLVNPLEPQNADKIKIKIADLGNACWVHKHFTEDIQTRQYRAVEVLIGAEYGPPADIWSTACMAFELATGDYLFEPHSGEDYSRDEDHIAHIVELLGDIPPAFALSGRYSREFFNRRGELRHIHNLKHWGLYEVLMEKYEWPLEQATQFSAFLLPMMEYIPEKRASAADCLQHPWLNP
Tyrosine-protein kinase ABL1 (Homo sapiens), P00519 [F317I], sequence (P00519 whole entry F317I): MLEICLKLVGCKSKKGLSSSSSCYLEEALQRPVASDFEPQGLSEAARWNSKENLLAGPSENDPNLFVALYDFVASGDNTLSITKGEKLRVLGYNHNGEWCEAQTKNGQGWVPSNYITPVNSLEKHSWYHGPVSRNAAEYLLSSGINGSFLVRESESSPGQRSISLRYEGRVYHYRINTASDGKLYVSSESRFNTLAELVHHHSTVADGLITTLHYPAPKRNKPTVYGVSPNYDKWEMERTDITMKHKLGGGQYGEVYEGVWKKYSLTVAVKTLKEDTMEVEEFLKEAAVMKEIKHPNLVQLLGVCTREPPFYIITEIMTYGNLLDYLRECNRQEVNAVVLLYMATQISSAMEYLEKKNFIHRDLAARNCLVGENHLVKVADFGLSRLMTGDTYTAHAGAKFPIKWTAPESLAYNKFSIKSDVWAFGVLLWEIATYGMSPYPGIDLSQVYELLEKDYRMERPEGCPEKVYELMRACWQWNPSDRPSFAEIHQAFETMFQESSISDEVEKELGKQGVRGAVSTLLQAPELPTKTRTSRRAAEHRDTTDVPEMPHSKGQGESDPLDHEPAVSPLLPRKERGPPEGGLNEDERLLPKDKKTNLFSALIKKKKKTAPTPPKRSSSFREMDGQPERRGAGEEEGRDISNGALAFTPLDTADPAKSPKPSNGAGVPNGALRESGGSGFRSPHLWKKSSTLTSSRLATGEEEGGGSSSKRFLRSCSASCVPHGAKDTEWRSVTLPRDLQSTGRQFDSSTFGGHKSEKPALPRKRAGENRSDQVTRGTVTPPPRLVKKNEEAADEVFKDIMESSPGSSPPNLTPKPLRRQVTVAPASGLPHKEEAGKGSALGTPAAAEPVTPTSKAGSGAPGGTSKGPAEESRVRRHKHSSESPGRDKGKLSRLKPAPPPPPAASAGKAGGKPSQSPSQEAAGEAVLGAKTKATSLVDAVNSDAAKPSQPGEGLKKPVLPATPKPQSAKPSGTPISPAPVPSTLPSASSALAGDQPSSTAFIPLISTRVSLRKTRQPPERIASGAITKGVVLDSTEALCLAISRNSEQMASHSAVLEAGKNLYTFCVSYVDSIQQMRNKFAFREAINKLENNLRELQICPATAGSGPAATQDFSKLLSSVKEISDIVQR
Ephrin type-A receptor 7 (Homo sapiens), sequence (Q15375 28-998 limits assumed): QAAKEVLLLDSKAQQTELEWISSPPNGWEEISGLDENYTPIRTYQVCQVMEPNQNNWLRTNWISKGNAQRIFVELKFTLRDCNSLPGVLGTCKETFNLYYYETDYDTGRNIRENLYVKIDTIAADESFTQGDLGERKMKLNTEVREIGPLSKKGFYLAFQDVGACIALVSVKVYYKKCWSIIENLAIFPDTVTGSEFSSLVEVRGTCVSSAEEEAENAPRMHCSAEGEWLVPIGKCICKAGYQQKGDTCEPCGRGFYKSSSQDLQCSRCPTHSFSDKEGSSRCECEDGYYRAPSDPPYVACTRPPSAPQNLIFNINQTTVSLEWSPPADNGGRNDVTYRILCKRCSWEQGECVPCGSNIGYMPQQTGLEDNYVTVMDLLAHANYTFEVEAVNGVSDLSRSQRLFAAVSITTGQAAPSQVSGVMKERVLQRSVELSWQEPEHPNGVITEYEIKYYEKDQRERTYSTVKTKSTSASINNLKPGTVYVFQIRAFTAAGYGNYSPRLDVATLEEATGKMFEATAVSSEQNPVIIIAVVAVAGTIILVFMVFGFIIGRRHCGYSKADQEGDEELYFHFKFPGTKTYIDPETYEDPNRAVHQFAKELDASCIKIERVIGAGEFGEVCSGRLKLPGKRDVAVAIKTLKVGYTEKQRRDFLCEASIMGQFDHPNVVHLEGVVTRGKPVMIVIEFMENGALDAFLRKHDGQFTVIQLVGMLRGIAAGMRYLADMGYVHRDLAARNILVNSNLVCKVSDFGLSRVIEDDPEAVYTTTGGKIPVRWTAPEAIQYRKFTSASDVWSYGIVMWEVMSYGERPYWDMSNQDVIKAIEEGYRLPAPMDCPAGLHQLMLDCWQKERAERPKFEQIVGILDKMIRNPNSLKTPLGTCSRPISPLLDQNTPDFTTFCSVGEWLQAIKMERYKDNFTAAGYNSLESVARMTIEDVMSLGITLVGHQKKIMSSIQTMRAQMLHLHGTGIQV
5'-AMP-activated protein kinase catalytic subunit alpha-1 (Homo sapiens), sequence (Q13131 whole entry, looked up): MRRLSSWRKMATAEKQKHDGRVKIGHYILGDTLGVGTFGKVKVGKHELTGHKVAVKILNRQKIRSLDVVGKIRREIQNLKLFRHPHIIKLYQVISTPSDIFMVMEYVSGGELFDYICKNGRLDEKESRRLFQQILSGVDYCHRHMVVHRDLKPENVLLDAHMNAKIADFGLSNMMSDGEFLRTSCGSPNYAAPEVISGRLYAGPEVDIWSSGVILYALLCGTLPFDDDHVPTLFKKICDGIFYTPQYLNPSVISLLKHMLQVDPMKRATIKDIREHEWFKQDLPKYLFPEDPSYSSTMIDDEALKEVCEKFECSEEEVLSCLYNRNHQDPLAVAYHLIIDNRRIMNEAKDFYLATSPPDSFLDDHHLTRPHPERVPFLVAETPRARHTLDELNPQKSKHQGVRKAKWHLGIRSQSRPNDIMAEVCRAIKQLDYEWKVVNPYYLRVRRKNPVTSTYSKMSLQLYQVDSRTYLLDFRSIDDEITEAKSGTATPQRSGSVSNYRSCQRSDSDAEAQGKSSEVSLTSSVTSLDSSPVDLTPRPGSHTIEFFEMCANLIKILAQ

O=C(O)[C@@H]1[C@@H](Cn2nnc3ccccc3c2=O)CC[C@H]1C(=O)c1ccc(OCCC2CCOCC2)cc1 [BAY-694]
inactive: residual activity [1] 99% | residual activity [2] 86% | residual activity [3] 100% | residual activity [4] 90% | residual activity [5] 82% | residual activity [6] 100% | residual activity [7] 100% | inhibition [8] 10.2% | residual activity [9] 93% | residual activity [10] 83% | residual activity [11] 100% | residual activity [12] 100% | residual activity [13] 100% | residual activity [14] 87% | residual activity [15] 100% | residual activity [16] 91% | residual activity [17] 78% | residual activity [18] 89% | residual activity [19] 100% | residual activity [20] 100% | residual activity [21] 100% | residual activity [22] 99% | residual activity [23] 82% | residual activity [24] 90% | residual activity [25] 100% | residual activity [26] 100% | residual activity [27] 94% | residual activity [28] 72% | residual activity [29] 100% | residual activity [30] 100% | residual activity [31] 83% | residual activity [32] 100% | residual activity [33] 95% | residual activity [34] 100% | residual activity [35] 93% | residual activity [36] 100% | residual activity [37] 89% | residual activity [38] 100% | residual activity [39] 97% | residual activity [40] 81% | residual activity [41] 94% | residual activity [42] 100% | residual activity [43] 100% | residual activity [44] 82% | residual activity [45] 100%

O=C(O)[C@H]1[C@H](Cn2nnc3ccccc3c2=O)CC[C@@H]1C(=O)c1ccc(OCCC2CCOCC2)cc1 [BAY-7598]
inactive: residual activity [1] 100% | residual activity [2] 100% | residual activity [3] 100% | residual activity [4] 81% | residual activity [5] 99% | residual activity [6] 100% | residual activity [7] 100% | inhibition [8] 13.9% | residual activity [9] 92% | residual activity [10] 72% | residual activity [11] 100% | residual activity [12] 100% | residual activity [13] 82% | residual activity [14] 90% | residual activity [15] 100% | residual activity [16] 96% | residual activity [17] 88% | residual activity [18] 100% | residual activity [19] 85% | residual activity [20] 100% | residual activity [21] 84% | residual activity [22] 86% | residual activity [23] 86% | residual activity [24] 84% | residual activity [25] 100% | residual activity [26] 100% | residual activity [27] 100% | residual activity [28] 93% | residual activity [29] 100% | residual activity [30] 90% | residual activity [31] 86% | residual activity [32] 95% | residual activity [33] 100% | residual activity [34] 89% | residual activity [35] 84% | residual activity [36] 83% | residual activity [37] 85% | residual activity [38] 100% | residual activity [39] 82% | residual activity [40] 100% | residual activity [41] 77% | residual activity [42] 82% | residual activity [43] 100% | residual activity [44] 69% | residual activity [45] 100%
